Where a SMILES comes first, the peptide text is derived from it. [ ]: non-standard residue; d: D form. Nle = CCCC[C@H](N)C(=O)O; Sar = CNCC(=O)O

The Ki is the equilibrium dissociation constant of an inhibitor or competing ligand from its target. As usually defined, the Emax is the maximal effect, on the per cent scale that the assay sets. The EC50 is the concentration that produces a half-maximal response.

The target in one experiment is T1, hMCR-4 (Homo sapiens, UniProt P32245).
T1 construct: expressed in transfected cells; host or cells: HEK-293 cells (membrane homogenates)
Nature of the experiment: Competitive inhibition binding assay using [I125]-NDP-α-MSH, hMCR-4 membranes. Particulars: HEK-293 membranes, recombinant human MCR-4, [I125]-NDP-α-MSH; read-out: MC-4 Ki (average). The method, then: (§1) A competitive inhibition binding assay was performed using membrane homogenates prepared from HEK-293 cells that express recombinant hMCR-1a or hMCR-4 (in each instance where the h prefix refers to human), or alternatively membrane homogenates from B16-F10 mouse melanoma cells containing endogenous murine MCR-1. In the examples that follow, all MCR-1 and MCR-4 values are for human recombinant receptors, unless otherwise noted. Assays were performed in 96 well polypropylene round-bottom plates (VWR catalog number 12777-030). Membrane homogenates were incubated with 0.1 nM [I^125]-NDP-α-MSH (Perkin Elmer) and increasing concentrations of test peptides of the present invention in buffer containing 25 mM HEPES buffer (pH 7.5) with 100 mM NaCl, 2 mM CaCl2, 2 mM MgCl2, 0.3 mM 1,10-phenanthroline, and 0.2% bovine serum albumin. After incubation for 90 minutes at 37° C., the assay mixture was filtered onto GF/B Unifilter plates (Perkin-Elmer catalog number 6005177) and washed with 3 mL of ice-cold buffer per well. Filters were air dried and 35 μL of scintillation cocktail added to each well. Plates were counted in a Microbeta counter for bound radioactivity. Non-specific binding was measured by inhibition of binding of [I^125]-NDP-α-MSH in the presence of 1 μM NDP-α-MSH. Maximal specific binding (100%) was defined as the difference in radioactivity (cpm) bound to cell membranes in the absence and presence of 1 μM NDP-α-MSH. Each assay was conducted in duplicate and the actual mean values are described, with results less than 0% reported as 0%. Ki values for peptides of the present invention were determined using Graph-Pad PRISM® curve-fitting software.
(§2) Peptides of the following structures were synthesized and purified as described in Section 5 above, with the resulting peptide having the structure depicted. After synthesis and purification, the foregoing peptide was tested as described in Section 8 above, and average MCR-1 and MCR-4 Ki values determined as indicated. All Ki values were determined using [I^125]-NDP-α-MSH. All results are expressed in nM except for Emax values, which are percentage values.

For a further experiment, the target named is T2, hMCR-1a (Homo sapiens, UniProt Q01726).
T2 construct: expressed in transfected cells; host or cells: HEK-293 cells (membrane homogenates)
Kind of experiment: Competitive inhibition binding assay using [I125]-NDP-α-MSH, hMCR-1a membranes. Particulars: HEK-293 membranes, recombinant human MCR-1, [I125]-NDP-α-MSH; read-out: MC-1 Ki (average). How it is done:
as §1, §2

The target of a further experiment is T3, hMCR-1 (Homo sapiens, UniProt Q01726).
T3 construct: endogenous in cells; host or cells: HBL human melanoma cell line
Kind of experiment: Assay for agonist activity: cAMP accumulation in HBL human melanoma cells. The format is cell-based. As to conditions: for Emax: compared to reference agonist NDP-α-MSH, read-out: MC-1 Emax (average; cAMP HBL); for EC50: read-out: MC-1 EC50 (average; cAMP HBL).
Description: Accumulation of intracellular cAMP was examined as a measure of the ability of the peptides of the present invention to elicit a functional response in a human melanoma cell line, HBL, that express hMCR-1 (see Kang, L., et al., “A selective small molecule agonist of melanocortin-1 receptor inhibits lipopolysaccharide-induced cytokine accumulation and leukocyte infiltration in mice,” J. Leuk. Biol. 80:897-904 (2006)) or HEK-293 cells that express hMCR-4. Confluent HBL cells that express hMCR-1 or HEK-293 cells that express recombinant hMCR-4 were detached from culture plates by incubation in enzyme-free cell dissociation buffer. Dispersed cells were suspended in Earle's Balanced Salt Solution containing 10 mM HEPES (pH 7.5), 1 mM MgCl2, 1 mM glutamine, 0.5% albumin and 0.3 mM 3-isobutyl-1-methyl-xanthine (IBMX), a phosphodiesterase inhibitor. The cells were plated in 96-well plates at a density of 0.4×10^5 cells per well for HBL cells and 0.5×10^5 cells per well for HEK-293 cells and pre-incubated for 10 minutes. Cells were exposed for 15 minutes at 37° C. to peptides of the present invention dissolved in DMSO (final DMSO concentration of 1%) at a concentration range of 0.05-5000 nM in a total assay volume of 200 μL. NDP-α-MSH was used as the reference agonist. cAMP levels were determined by an HTRF® cAMP cell-based assay system from Cisbio Bioassays utilizing cryptate-labeled anti-cAMP and d2-labeled cAMP, with plates read on a Perkin-Elmer Victor plate reader at […]. Data analysis was performed by nonlinear regression analysis with Graph-Pad PRISM® software. Maximum efficacy (Emax) values were determined for each test peptide of the present invention, compared to that achieved by the reference melanocortin agonist NDP-α-MSH.
as §2
A general note: Changes in cAMP serve as a functional read-out for many G protein-coupled receptors.

T3 sequence (Q01726 whole entry): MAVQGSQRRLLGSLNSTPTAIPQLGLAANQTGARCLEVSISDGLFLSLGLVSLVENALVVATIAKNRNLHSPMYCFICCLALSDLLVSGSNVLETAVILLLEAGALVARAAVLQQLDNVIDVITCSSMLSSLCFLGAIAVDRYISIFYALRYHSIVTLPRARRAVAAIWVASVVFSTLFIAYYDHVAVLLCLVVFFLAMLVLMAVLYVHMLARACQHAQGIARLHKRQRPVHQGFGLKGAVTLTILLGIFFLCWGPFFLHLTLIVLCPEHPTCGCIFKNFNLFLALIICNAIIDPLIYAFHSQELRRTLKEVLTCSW
T2 sequence (Q01726 whole entry): as above
T1 sequence (P32245 whole entry): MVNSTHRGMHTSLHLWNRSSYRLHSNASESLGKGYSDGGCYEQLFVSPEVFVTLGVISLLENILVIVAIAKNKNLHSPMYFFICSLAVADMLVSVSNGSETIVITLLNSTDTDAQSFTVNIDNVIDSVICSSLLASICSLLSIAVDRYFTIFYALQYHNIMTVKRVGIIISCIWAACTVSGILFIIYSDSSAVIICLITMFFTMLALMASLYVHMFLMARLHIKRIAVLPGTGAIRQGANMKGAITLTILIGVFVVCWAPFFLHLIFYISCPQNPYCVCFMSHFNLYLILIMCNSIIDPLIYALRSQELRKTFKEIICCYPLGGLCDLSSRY

`CCCC[C@H](NC(C)=O)C(=O)N[C@@H](C)C(=O)N[C@@H](Cc1c[nH]cn1)C(=O)N[C@H](Cc1ccccc1)C(=O)N[C@@H](CCCNC(=N)N)C(=O)N1CCC[C@@H]1C(=O)N[C@@H](Cc1c[nH]c2ccccc12)C(N)=O` [Example 9.11, Ac-Nle-Ala-His-D-Phe-Arg-D-Pro-Trp-NH2] (Ac-[Nle]AH[dF]R[dP]W-NH2): the Ki at hMCR-4 worked out at 6200 nM. Moreover, the inhibition constant Ki on hMCR-1a was 14 nM. Moreover, at hMCR-1, the Emax was determined as 70% and the EC50 is 1 nM.
On to `CCCC[C@H](NC(C)=O)C(=O)N[C@@H](C)C(=O)N[C@H](Cc1ccccc1)C(=O)N[C@@H](CCCNC(=N)N)C(=O)N[C@@H](C)C(=O)N[C@@H](Cc1c[nH]c2ccccc12)C(N)=O` [Example 9.10, Ac-Nle-Ala-D-Phe-Arg-Ala-Trp-NH2] (Ac-[Nle]A[dF]RAW-NH2), for which the Emax on hMCR-1 amounted to 85%.
`CCCC[C@H](NC(C)=O)C(=O)N[C@@H](C)C(=O)N[C@@H](Cc1c[nH]cn1)C(=O)N[C@@H](Cc1ccccc1)C(=O)N[C@@H](CCCNC(=N)N)C(=O)N[C@@H](C)C(=O)N[C@@H](Cc1c[nH]c2ccccc12)C(N)=O` [Example 9.6, Ac-Nle-Ala-His-Phe-Arg-Ala-Trp-NH2] (Ac-[Nle]AHFRAW-NH2): on hMCR-1, the Emax came out at 72% and the concentration for a half-maximal effect (EC50) turned out to be 4 nM.
Take `CCCC[C@H](NC(C)=O)C(=O)N[C@@H](Cc1c[nH]cn1)C(=O)N[C@@H](Cc1ccccc1)C(=O)N[C@@H](CCCNC(=N)N)C(=O)N[C@@H](C)C(=O)N[C@@H](Cc1c[nH]c2ccccc12)C(N)=O` [Example 9.8, Ac-Nle-His-Phe-Arg-Ala-Trp-NH2] (Ac-[Nle]HFRAW-NH2): at hMCR-1, the Emax turned out to be 55%.
With `CCCC[C@H](NC(C)=O)C(=O)N[C@@H](C)C(=O)N[C@@H](Cc1c[nH]cn1)C(=O)N[C@H](Cc1ccccc1)C(=O)N[C@@H](CCCNC(=N)N)C(=O)N(C)CC(=O)N[C@@H](Cc1c[nH]c2ccccc12)C(N)=O` [Example 9.4, Ac-Nle-Ala-His-D-Phe-Arg-Sar-Trp-NH2] (Ac-[Nle]AH[dF]R[Sar]W-NH2), the Ki at hMCR-4 amounted to 870 nM. For the same compound, the inhibition constant Ki at hMCR-1a was determined as 2 nM. In addition, at hMCR-1, the Emax amounted to 77% and the EC50 amounted to 0.17 nM.
As for `CCCC[C@H](NC(C)=O)C(=O)N[C@@H](C)C(=O)N[C@@H](Cc1c[nH]cn1)C(=O)N[C@H](Cc1ccccc1)C(=O)N[C@@H](C)C(=O)N[C@@H](C)C(=O)N[C@@H](Cc1c[nH]c2ccccc12)C(N)=O` [Example 9.16, Ac-Nle-Ala-His-D-Phe-Ala-Ala-Trp-NH2] (Ac-[Nle]AH[dF]AAW-NH2), at hMCR-1, the Emax is 99% and the EC50 was determined as 4 nM.
As to `CCCC[C@H](NC(C)=O)C(=O)N[C@@H](Cc1c[nH]cn1)C(=O)N[C@H](Cc1ccccc1)C(=O)N[C@@H](CCCNC(=N)N)C(=O)N[C@@H](C)C(=O)N[C@@H](Cc1c[nH]c2ccccc12)C(N)=O` [Example 9.3, Ac-Nle-His-D-Phe-Arg-Ala-Trp-NH2] (Ac-[Nle]H[dF]RAW-NH2), at hMCR-1, the Emax stood at 95% and the EC50 was 1 nM.
For the compound `CCCC[C@H](NC(C)=O)C(=O)N[C@@H](C)C(=O)N[C@@H](Cc1c[nH]cn1)C(=O)N[C@H](Cc1ccccc1)C(=O)N[C@@H](CCCNC(=N)N)C(=O)N[C@@H](C)C(=O)N[C@@H](Cc1c[nH]c2ccccc12)C(N)=O` [Example 9.1, Ac-Nle-Ala-His-D-Phe-Arg-Ala-Trp-NH2] (Ac-[Nle]AH[dF]RAW-NH2), the Emax on hMCR-1 worked out at 96%.
Take `CCCC[C@H](NC(C)=O)C(=O)N[C@@H](C)C(=O)N[C@@H](Cc1c[nH]cn1)C(=O)N[C@H](Cc1ccccc1)C(=O)N[C@@H](CCCNC(=N)N)C(=O)N1CCC[C@@H]1C(=O)N[C@H](Cc1c[nH]c2ccccc12)C(N)=O` [Example 9.12, Ac-Nle-Ala-His-D-Phe-Arg-D-Pro-D-Trp-NH2] (Ac-[Nle]AH[dF]R[dP][dW]-NH2): the Ki at hMCR-1a came to 20 nM. On hMCR-1, the Emax worked out at 72% and the EC50 amounted to 2 nM.
Turning to `CCCC[C@H](NC(C)=O)C(=O)N[C@@H](C)C(=O)N[C@@H](Cc1c[nH]cn1)C(=O)N[C@H](Cc1ccccc1)C(=O)N[C@@H](CCCNC(=N)N)C(=O)N1CCC[C@H]1C(=O)N[C@@H](Cc1c[nH]c2ccccc12)C(N)=O` [Example 9.2, Ac-Nle-Ala-His-D-Phe-Arg-Pro-Trp-NH2] (Ac-[Nle]AH[dF]RPW-NH2), the Emax on hMCR-1 is 78%.
In the case of `CCCC[C@H](NC(C)=O)C(=O)N[C@@H](C)C(=O)N[C@@H](CCCCN)C(=O)N[C@H](Cc1ccccc1)C(=O)N[C@@H](CCCNC(=N)N)C(=O)N[C@@H](C)C(=O)N[C@@H](Cc1c[nH]c2ccccc12)C(N)=O` [Example 9.20, Ac-Nle-Ala-Lys-D-Phe-Arg-Ala-Trp-NH2] (Ac-[Nle]AK[dF]RAW-NH2), the inhibition constant Ki at hMCR-1a turned out to be 4 nM. Further, the Emax on hMCR-1 was determined as 107%.
On to `CCCC[C@H](NC(C)=O)C(=O)N[C@@H](C)C(=O)N[C@@H](Cc1ccccc1)C(=O)N[C@H](Cc1ccccc1)C(=O)N[C@@H](CCCNC(=N)N)C(=O)N[C@@H](C)C(=O)N[C@@H](Cc1c[nH]c2ccccc12)C(N)=O` [Example 9.19, Ac-Nle-Ala-Phe-D-Phe-Arg-Ala-Trp-NH2] (Ac-[Nle]AF[dF]RAW-NH2), for which the Ki on hMCR-1a was determined as 20 nM. On hMCR-1, the Emax came to 99% and the EC50 came to 6 nM.
For the compound `CCCC[C@H](NC(C)=O)C(=O)N[C@@H](C)C(=O)N[C@@H](Cc1c[nH]cn1)C(=O)N[C@H](Cc1ccccc1)C(=O)N[C@@H](CCCNC(=N)N)C(=O)N[C@@H](C)C(=O)N[C@@H](Cc1c[nH]c2ccccc12)C(=O)O` [Example 9.14, Ac-Nle-Ala-His-D-Phe-Arg-Ala-Trp-OH] (Ac-[Nle]AH[dF]RAW-OH), the Ki on hMCR-1a amounted to 6 nM. The Emax at hMCR-1 turned out to be 73%.
As to `CCCC[C@H](NC(C)=O)C(=O)N[C@@H](C)C(=O)N[C@@H](Cc1c[nH]cn1)C(=O)N[C@H](Cc1ccccc1)C(=O)N[C@@H](CCCNC(=N)N)C(=O)NCC(=O)N[C@@H](Cc1c[nH]c2ccccc12)C(N)=O` [Example 9.5, Ac-Nle-Ala-His-D-Phe-Arg-Gly-Trp-NH2] (Ac-[Nle]AH[dF]RGW-NH2), the maximal effect (Emax) on hMCR-1 stood at 90%.
Still for that read-out and setting: as for `CCCC[C@H](NC(C)=O)C(=O)N[C@@H](C)C(=O)N[C@@H](CCCNC(=N)N)C(=O)N[C@H](Cc1ccccc1)C(=O)N[C@@H](CCCNC(=N)N)C(=O)N[C@@H](C)C(=O)N[C@@H](Cc1c[nH]c2ccccc12)C(N)=O` [Example 9.18, Ac-Nle-Ala-Arg-D-Phe-Arg-Ala-Trp-NH2] (Ac-[Nle]AR[dF]RAW-NH2), the figure is 106%.
Consider `CCCC[C@H](NC(C)=O)C(=O)N[C@@H](C)C(=O)N[C@@H](Cc1c[nH]cn1)C(=O)N[C@@H](Cc1ccccc1)C(=O)N[C@@H](CCCNC(=N)N)C(=O)NCC(=O)N[C@@H](Cc1c[nH]c2ccccc12)C(N)=O` [Example 9.7, Ac-Nle-Ala-His-Phe-Arg-Gly-Trp-NH2] (Ac-[Nle]AHFRGW-NH2), for which the Emax on hMCR-1 is 75%.
As to `CCCC[C@H](NC(C)=O)C(=O)N[C@@H](C)C(=O)N[C@@H](C)C(=O)N[C@H](Cc1ccccc1)C(=O)N[C@@H](CCCNC(=N)N)C(=O)N[C@@H](C)C(=O)N[C@@H](Cc1c[nH]c2ccccc12)C(N)=O` [Example 9.17, Ac-Nle-Ala-Ala-D-Phe-Arg-Ala-Trp-NH2] (Ac-[Nle]AA[dF]RAW-NH2), the Emax on hMCR-1 came out at 94%.

For the origin of these results see patent publication US10106578B2, “Melanocortin-1 receptor-specific linear peptides” (Palatin Technologies, Inc., priority 2012, dated 2018).
